# Experimental data reported in patent CN114306299A, “贝利司他在制备缓解和/或治疗缺血性脑卒中药物中的应用” (Institute of Materia Medica of CAMS and PUMC, priority 2020, dated 2022).
# What was measured:
# [1] = system: tumor cells (肿瘤细胞); conditions: cited from earlier work
# [2] = system: MCAO/R rats (MCAO/R大鼠); assay: TTC staining of cerebral infarct volume in MCAO/R rats, 24 h after reperfusion (1.2); assay type: in vivo, rat; conditions: i.p. at reperfusion; for cerebral infarct volume vs. model group: **P<0.01 vs. model group, n=7~11
# [3] = system: MCAO/R rats (MCAO/R大鼠); assay: Foot-fault test in MCAO/R rats, days 1, 3, 7, 14 (2.4); conditions: from day 7; treated groups (10, 30, 50 mg/kg), once daily for 14 days from 24 h after reperfusion; *P<0.05, **P<0.01 vs. model group; n=6~9
# [4] = system: MCAO/R rats (MCAO/R大鼠); assay: Survival rate of MCAO/R rats, 14-day dosing (2.2); assay type: in vivo, rat; conditions: treated groups (10, 30, 50 mg/kg); dosing from 24 h after reperfusion, once daily for 14 days; n=9~18; compared with model group (low survival)
# [5] = system: MCAO/R rats (MCAO/R大鼠); assay: Recovery of neurological function (mNSS) in MCAO/R rats, days 1, 3, 7, 14 (2.3)
# [6] = system: MCAO/R rats (MCAO/R大鼠); assay: Neurological function score (mNSS) in MCAO/R rats 24 h after reperfusion (1.3); assay type: in vivo, rat; conditions: i.p. at reperfusion; for mNSS score vs. model group: **P<0.01 vs. model group, n=7~11
# [7] = system: certain transformed cells (某些转化细胞); conditions: in vitro, nanomolar concentration (<250nM); cited from earlier work
# [8] = system: histone deacetylase, HDAC (组蛋白去乙酰化酶, HDAC); conditions: in vitro; cited from earlier work
# [9] = treated subjects in clinical studies; cited from earlier work
structure (smiles),measurement,setting,value
O=C(/C=C/c1cccc(S(=O)(=O)Nc2ccccc2)c1)NO [贝利司他],cytotoxicity to tumor cells compared with normal cells,[1],强于正常细胞
same,infarct volume vs. model group,[2]; dose group not named,能够减少MCAO/R大鼠的梗死体积
same,cerebral infarct volume vs. model group,[2]; high dose 50 mg/kg,显著降低
same,cerebral infarct volume vs. model group,[2]; medium dose 30 mg/kg,显著降低
same,foot-fault rate vs. model group,[3],明显降低
same,survival rate,[4],明显增高
same,mNSS score vs. model group,"[5]; from day 3, treated groups (10, 30, 50 mg/kg), once daily for 14 days from 24 h after reperfusion, *P<0.05, **P<0.01 vs. model group, n=6~9",显著低于模型组
same,neurological motor function,"[5]; treated groups, with increasing time of administration (once daily for 14 days)",神经运动功能恢复
same,neurological motor function score vs. model group,[6]; dose group not named,显著降低
same,mNSS score vs. model group,[6]; high dose 50 mg/kg,显著低于模型组
same,mNSS score vs. model group,[6]; medium dose 30 mg/kg,显著低于模型组
same,accumulation of acetylated histones and other proteins,[7],可致乙酰化组蛋白及其他蛋白积聚
same,cell cycle arrest or apoptosis of certain transformed cells,[7],诱导细胞周期停滞或某些转化细胞凋亡
same,concentration at which HDAC activity is inhibited,[8],< 250 nM
same,most common side effects,[9],恶心、呕吐、乏力、发热和贫血
